Data as given in the RepoRT retention time repository (doi:10.1016/j.chroma.2019.01.023).

Test: RP, Phenomenex Kinetex C18, 150 × 2.1 mm, 1.7 µm, 30 °C, 0.3 mL/min, estimated dead time 1.1 min; A: water + 0.1% formic acid, pH 3; B: acetonitrile + 0.1% formic acid, pH 3; gradient (min/%B) 0/2 14/100 17/100 17.1/2 25/2
Settings: stereoisomer not certain

LC retention time	SMILES
2.99 min	NC(Cc1c[nH]c2ccc(O)cc12)C(=O)O (configuration not stated) [5-HYDROXYTRYPTOPHAN]
1.57 min	N[C@@H](Cc1ccc(O)c(O)c1)C(=O)O [L-DOPA]
10.7 min	CC(CCC(=O)O)C1CCC2C3C(O)CC4CC(O)CCC4(C)C3CCC12C (configuration not stated) [CHENODEOXYCHOLATE]

The remaining lines, values behind:

SMILES	LC retention time
CCCCC(CC)COC(=O)c1ccccc1C(=O)OCC(CC)CCCC (configuration not stated) [BIS(2-ETHYLHEXYL)PHTHALATE]	9.02 min
CC12CCC(=O)C=C1CCC1C2CCC2(C)C1CCC2(O)C(=O)CO (configuration not stated) [CORTEXOLONE]	8.32 min
CC(=O)OCC(=O)C1(O)CCC2C3CCC4=CC(=O)CCC4(C)C3C(O)CC21C (configuration not stated) [CORTISOL 21-ACETATE]	8.62 min

Test: as above
Settings: stereoisomer not certain
Remark: another data set of the same source

LC retention time	SMILES
9.43 min	CC(CCC(=O)NCCS(=O)(=O)O)C1CCC2C3CCC4CC(O)CCC4(C)C3CCC12C (configuration not stated) [LITHOCHOLYLTAURINE]
3.88 min	O=C(O)c1ccc([O-])c(O)c1 [3,4-DIHYDROXYBENZOATE]
4.83 min	CC(=O)NCCc1c[nH]c2ccc(O)cc12 [N-ACETYLSEROTONIN]
1.9 min	CC(=O)NC(CCC(=O)O)C(=O)O (configuration not stated) [N-ACETYLGLUTAMATE]
2.11 min	NC(Cc1ccc(O)cc1)C(=O)O (configuration not stated) [TYROSINE]
3.18 min	NC(Cc1ccccc1)C(=O)O (configuration not stated) [PHENYLALANINE]
9.11 min	CC(CCC(=O)O)C1CCC2C3C(O)CC4CC(O)CCC4(C)C3CC(O)C12C (configuration not stated) [CHOLATE]
4.78 min	O=C(O)CNC(=O)c1ccccc1 [HIPPURATE]
4.73 min	O=C(O)CCCCCC(=O)O [6-CARBOXYHEXANOATE]
2.36 min	CC(O)(CC(=O)O)CC(=O)O [3-HYDROXYMETHYLGLUTARATE]
6.27 min	CCCCCCSCC(NC(=O)CCC(N)C(=O)O)C(=O)NCC(=O)O (configuration not stated) [S-HEXYL-GLUTATHIONE]
9.28 min	CC(CCC(=O)NCC(=O)O)C1CCC2C3C(O)CC4CC(O)CCC4(C)C3CCC12C (configuration not stated) [GLYCOCHENODEOXYCHOLATE]
7 min	O=C(O)CCCCCCCCC(=O)O [SEBACATE]
4.22 min	CSCCC(NC(C)=O)C(=O)O (configuration not stated) [N-ACETYLMETHIONINE]
6.26 min	O=C(O)CCCCCCCC(=O)O [AZELATE]
3.93 min	CSCC[C@H](NC=O)C(=O)O [N-FORMYL-L-METHIONINE]
4.95 min	N[C@@H](Cc1cc(I)c(O)c(I)c1)C(=O)O [3,5-DIIODO-L-TYROSINE]
4.35 min	Nc1nc2ncc(CNc3ccc(C(=O)NC(CCC(=O)O)C(=O)O)cc3)nc2c(=O)[nH]1 (configuration not stated) [FOLATE]
2.83 min	Cc1ncc(CO)c(C(=O)O)c1O [4-PYRIDOXATE]
5.65 min	O=C(O)C=Cc1ccc(O)cc1 [4-COUMARATE]
3.52 min	CC(=O)N1CCCC1C(=O)O (configuration not stated) [N-ACETYLPROLINE]
1.5 min	O=C(O)c1cccnc1C(=O)O [QUINOLINATE]
11.8 min	CCCCCC=CCC=CCC=CCCCCC(=O)[O-] [GAMMA-LINOLENATE]
3.56 min	N[C@@H](Cc1ccc(O)c([N+](=O)[O-])c1)C(=O)O [3-NITRO-L-TYROSINE]
4.12 min	O=C(O)c1cc(=O)c2cccc(O)c2[nH]1 [XANTHURENATE]
3.05 min	NC(Cc1c[nH]c2ccc(O)cc12)C(=O)O (configuration not stated) [5-HYDROXYTRYPTOPHAN]
1.63 min	N[C@@H](Cc1ccc(O)c(O)c1)C(=O)O [L-DOPA]
10.8 min	CC(CCC(=O)O)C1CCC2C3C(O)CC4CC(O)CCC4(C)C3CCC12C (configuration not stated) [CHENODEOXYCHOLATE]

The remaining lines, values behind:

SMILES	LC retention time
Cn1cnc2c(ncn2C2OC(CO)C(O)C2O)c1=N (configuration not stated) [1-METHYLADENOSINE]	3.36 min
O=c1[nH]c(=O)c2nccnc2[nH]1 [2,4-DIHYDROXYPTERIDINE]	2.49 min
NC(Cc1cc(I)c(Oc2cc(I)c(O)c(I)c2)c(I)c1)C(=O)O (configuration not stated) [THYROXINE]	8.06 min
OCCc1c[nH]c2ccccc12 [INDOLE-3-ETHANOL]	6.56 min
CC1NCCc2cc(O)c(O)cc21 (configuration not stated) [SALSOLINOL]	2.16 min
O=c1ccn(C2OC(CO)C(O)C2O)c(=O)[nH]1 (configuration not stated) [URIDINE]	2.06 min
NC(=O)Cc1c[nH]c2ccccc12 [INDOLE-3-ACETAMIDE]	5.42 min
Nc1ccn(C2CC(O)C(CO)O2)c(=O)n1 (configuration not stated) [DEOXYCYTIDINE]	1.54 min
Cc1cc2nc3c(=O)[nH]c(=O)nc-3n(CC(O)C(O)C(O)CO)c2cc1C (configuration not stated) [RIBOFLAVIN]	4.85 min
Cc1c[nH]c(=O)[nH]c1=O [THYMINE]	2.54 min
Cc1cc2nc3[nH]c(=O)[nH]c(=O)c3nc2cc1C [LUMICHROME]	6.2 min
CC12CCC(=O)C=C1CCC1C2C(O)CC2(C)C(C(=O)CO)CCC12 (configuration not stated) [CORTICOSTERONE]	8.14 min
O=C(O)c1ccnc2ccccc12 [4-QUINOLINECARBOXYLATE]	2.5 min
O=C(O)c1ccc(=O)[nH]c1 [6-HYDROXYNICOTINATE]	2.76 min
Cn1c(=O)[nH]c2ncn(C)c2c1=O [PARAXANTHINE]	4.04 min
CC12CCC(=O)C=C1CCC1C2C(=O)CC2(C)C1CCC2(O)C(=O)CO (configuration not stated) [CORTISONE]	7.28 min
NC(Cc1cc(I)c(Oc2ccc(O)c(I)c2)c(I)c1)C(=O)O (configuration not stated) [LIOTHYRONINE]	7.42 min
CC(=O)c1ccc(O)cc1O [2',4'-DIHYDROXYACETOPHENONE]	6.45 min
Nc1nc2c(ncn2C2OC3COP(=O)(O)OC3C2O)c(=O)[nH]1 (configuration not stated) [CYCLIC GMP]	2.8 min
CC(O)C(O)C1=Nc2c(nc(N)[nH]c2=O)NC1 (configuration not stated) [DIHYDROBIOPTERIN]	2.14 min
O=C([O-])c1c[nH]c(=O)[nH]c1=O [URACIL 5-CARBOXYLATE]	1.93 min
CCCCC(CC)COC(=O)c1ccccc1C(=O)OCC(CC)CCCC (configuration not stated) [BIS(2-ETHYLHEXYL)PHTHALATE]	9.11 min
CC12CCC(=O)C=C1CCC1C2CCC2(C)C1CCC2(O)C(=O)CO (configuration not stated) [CORTEXOLONE]	8.31 min
CC(=O)OCC(=O)C1(O)CCC2C3CCC4=CC(=O)CCC4(C)C3C(O)CC21C (configuration not stated) [CORTISOL 21-ACETATE]	8.68 min

Test: HILIC, Waters ACQUITY UPLC BEH Amide, 150 × 2.1 mm, 1.7 µm, 40 °C, 0.5 mL/min, estimated dead time 0.66 min; A: 5% water + 95% acetonitrile; B: 70% water + 30% acetonitrile + 10 mM ammonium formate, pH 6.5; gradient (min/%B) 0/0 2/0 20/70 23/70 24/0 31/0
Settings: stereoisomer not certain

LC retention time	SMILES
1.01 min	CC(CCC(=O)NCCS(=O)(=O)O)C1CCC2C3CCC4CC(O)CCC4(C)C3CCC12C (configuration not stated) [LITHOCHOLYLTAURINE]
1.02 min	CC(=O)NCCc1c[nH]c2ccc(O)cc12 [N-ACETYLSEROTONIN]
9 min	NC(Cc1ccc(O)cc1)C(=O)O (configuration not stated) [TYROSINE]
7.87 min	NC(Cc1ccccc1)C(=O)O (configuration not stated) [PHENYLALANINE]
2.62 min	CC(CCC(=O)O)C1CCC2C3C(O)CC4CC(O)CCC4(C)C3CC(O)C12C (configuration not stated) [CHOLATE]
2.66 min	O=C(O)CNC(=O)c1ccccc1 [HIPPURATE]
1.12 min	O=C(O)CCCCCCCCC(=O)O [SEBACATE]
3.31 min	CSCCC(NC(C)=O)C(=O)O (configuration not stated) [N-ACETYLMETHIONINE]
1.24 min	O=C(O)CCCCCCCC(=O)O [AZELATE]
2.24 min	CSCC[C@H](NC=O)C(=O)O [N-FORMYL-L-METHIONINE]
1 min	CC(CCC(=O)O)C1CCC2C3C(O)CC4CC(O)CCC4(C)C3CCC12C (configuration not stated) [CHENODEOXYCHOLATE]

The next lines start with the compound.

SMILES	LC retention time
Cn1cnc2c(ncn2C2OC(CO)C(O)C2O)c1=N (configuration not stated) [1-METHYLADENOSINE]	2.82 min
O=c1[nH]c(=O)c2nccnc2[nH]1 [2,4-DIHYDROXYPTERIDINE]	1.79 min
OCCc1c[nH]c2ccccc12 [INDOLE-3-ETHANOL]	0.83 min
CC1NCCc2cc(O)c(O)cc21 (configuration not stated) [SALSOLINOL]	8.1 min
O=c1ccn(C2OC(CO)C(O)C2O)c(=O)[nH]1 (configuration not stated) [URIDINE]	3.65 min
NC(=O)Cc1c[nH]c2ccccc12 [INDOLE-3-ACETAMIDE]	0.98 min
Nc1ccn(C2CC(O)C(CO)O2)c(=O)n1 (configuration not stated) [DEOXYCYTIDINE]	5.71 min
Cc1cc2nc3c(=O)[nH]c(=O)nc-3n(CC(O)C(O)C(O)CO)c2cc1C (configuration not stated) [RIBOFLAVIN]	6.01 min
Cc1c[nH]c(=O)[nH]c1=O [THYMINE]	1.6 min
Cc1cc2nc3[nH]c(=O)[nH]c(=O)c3nc2cc1C [LUMICHROME]	1.32 min
CC12CCC(=O)C=C1CCC1C2C(O)CC2(C)C(C(=O)CO)CCC12 (configuration not stated) [CORTICOSTERONE]	0.85 min
O=C(O)c1ccnc2ccccc12 [4-QUINOLINECARBOXYLATE]	2.82 min
O=C(O)c1ccc(=O)[nH]c1 [6-HYDROXYNICOTINATE]	5.68 min
Cn1c(=O)[nH]c2ncn(C)c2c1=O [PARAXANTHINE]	1.36 min
CC12CCC(=O)C=C1CCC1C2C(=O)CC2(C)C1CCC2(O)C(=O)CO (configuration not stated) [CORTISONE]	0.86 min
CC(=O)c1ccc(O)cc1O [2',4'-DIHYDROXYACETOPHENONE]	0.96 min
CC12CCC(=O)C=C1CCC1C2CCC2(C)C1CCC2(O)C(=O)CO (configuration not stated) [CORTEXOLONE]	0.83 min
CC(=O)OCC(=O)C1(O)CCC2C3CCC4=CC(=O)CCC4(C)C3C(O)CC21C (configuration not stated) [CORTISOL 21-ACETATE]	0.83 min
